This is an account of results in the NIST ThermoML archive (doi:10.1016/j.tca.2018.10.003).

The conditions of the data set: Crystal; DSC.

Numbers after ± are expanded uncertainties.

Take `O=C(OOC(=O)c1ccccc1)c1ccccc1` [benzoyl peroxide]: the Triple point temperature is recorded as 377.75 ± 4.1 K.
